Counter-ions that a name gives are not always drawn.
Assays:
human plasma kallikrein = target: T1, human plasma kallikrein (Homo sapiens, UniProt P03952); assay: Plasma kallikrein enzyme inhibition assay (chromogenic substrate S-2302), Ki; format: biochemical; settings: purified human plasma kallikrein, substrate S-2302, pH 7.5
T1 construct: purchased Enzyme Research Laboratories
Procedure: (§1) The effectiveness of compounds of the present invention as inhibitors of the coagulation Factors XIa, VIIa, IXa, Xa, XIIa, plasma kallikrein chymotrypsin, trypsin, or thrombin, can be determined using a relevant purified serine protease, respectively, and an appropriate synthetic substrate. The rate of hydrolysis of the chromogenic or fluorogenic substrate by the relevant serine protease was measured both in the absence and presence of compounds of the present invention. […] A decrease in the rate of absorbance or fluorescence change in the presence of inhibitor is indicative of enzyme inhibition. Such methods are known to one skilled in the art. The results of this assay are expressed as the inhibitory constant, Ki.
Plasma kallikrein determinations were made in 0.1 M sodium phosphate buffer at a pH of 7.5 containing 0.1-0.2 M sodium chloride and 0.5% PEG 8000. Determinations were made using purified human plasma kallikrein (Enzyme Research Laboratories) at a final assay concentration of 200 pM and the synthetic substrate S-2302 (H-(D)-Pro-Phe-Arg-pNA; CHROMOGENIX®) at a concentration of 0.00008-0.0004 M.
(§2) The Michaelis constant, Km, for substrate hydrolysis by each protease, was determined at 25° C. or 37° C. in the absence of inhibitor. Values of Ki were determined by allowing the protease to react with the substrate in the presence of the inhibitor. Reactions were allowed to go for periods of 20-180 minutes (depending on the protease) and the velocities (rate of absorbance or fluorescence change versus time) were measured. The following relationships were used to calculate Ki values: (Vmax*S)/(Km+S) (vo−vs)/vs=I/(Ki*(1+S/Km)) for a competitive inhibitor with one binding site; or vs/vo=A+((B−A)/(1+(IC50/(I)^n)); and Ki=IC50/(1+S/Km) for a competitive inhibitor where: […]

human Factor XIa = target: T2, human Factor XIa (Homo sapiens, UniProt P03951); assay: Factor XIa enzyme inhibition assay (chromogenic substrate S-2366), Ki; format: biochemical; settings: purified human Factor XIa, substrate S-2366, pH 7.4
T2 construct: purchased Haematologic Technologies
Procedure: as §1
Factor XIa determinations were made in 50 mM HEPES buffer at pH 7.4 containing 145 mM NaCl, 5 mM KCl, and 0.1% PEG 8000 (polyethylene glycol; JT Baker or Fisher Scientific). Determinations were made using purified human Factor XIa at a final concentration of 25-200 pM (Haematologic Technologies) and the synthetic substrate S-2366 (pyroGlu-Pro-Arg-pNA; CHROMOGENIX® or AnaSpec) at a concentration of 0.0002-0.001 M.
as §2

T2 sequence (P03951 388-625 limits assumed): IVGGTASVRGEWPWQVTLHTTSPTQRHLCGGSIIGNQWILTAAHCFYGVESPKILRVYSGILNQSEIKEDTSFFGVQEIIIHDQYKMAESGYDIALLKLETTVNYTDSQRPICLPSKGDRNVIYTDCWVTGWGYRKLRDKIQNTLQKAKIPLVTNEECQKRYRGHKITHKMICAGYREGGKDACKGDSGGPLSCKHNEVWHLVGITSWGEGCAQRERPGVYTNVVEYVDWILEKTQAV
T2 sequence (P03951 19-387 partner limits assumed): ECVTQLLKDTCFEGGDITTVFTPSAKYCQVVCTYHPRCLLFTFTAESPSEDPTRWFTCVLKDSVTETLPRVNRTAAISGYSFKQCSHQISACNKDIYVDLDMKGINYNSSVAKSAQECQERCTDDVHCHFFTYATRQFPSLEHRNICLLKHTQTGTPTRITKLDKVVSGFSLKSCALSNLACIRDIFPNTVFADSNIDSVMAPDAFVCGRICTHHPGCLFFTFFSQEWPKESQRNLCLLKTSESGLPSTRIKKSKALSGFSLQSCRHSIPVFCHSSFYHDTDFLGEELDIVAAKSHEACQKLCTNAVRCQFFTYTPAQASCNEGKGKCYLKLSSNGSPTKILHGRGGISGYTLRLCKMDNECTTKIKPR
T1 sequence (P03952 391-638 limits assumed): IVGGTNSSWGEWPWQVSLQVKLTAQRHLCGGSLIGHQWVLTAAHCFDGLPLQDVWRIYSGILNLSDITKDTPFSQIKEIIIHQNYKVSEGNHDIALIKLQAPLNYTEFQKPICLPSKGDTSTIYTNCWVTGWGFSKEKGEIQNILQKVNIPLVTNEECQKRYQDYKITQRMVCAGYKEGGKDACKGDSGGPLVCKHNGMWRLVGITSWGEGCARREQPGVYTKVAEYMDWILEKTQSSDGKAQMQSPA
T1 sequence (P03952 20-390 partner limits assumed): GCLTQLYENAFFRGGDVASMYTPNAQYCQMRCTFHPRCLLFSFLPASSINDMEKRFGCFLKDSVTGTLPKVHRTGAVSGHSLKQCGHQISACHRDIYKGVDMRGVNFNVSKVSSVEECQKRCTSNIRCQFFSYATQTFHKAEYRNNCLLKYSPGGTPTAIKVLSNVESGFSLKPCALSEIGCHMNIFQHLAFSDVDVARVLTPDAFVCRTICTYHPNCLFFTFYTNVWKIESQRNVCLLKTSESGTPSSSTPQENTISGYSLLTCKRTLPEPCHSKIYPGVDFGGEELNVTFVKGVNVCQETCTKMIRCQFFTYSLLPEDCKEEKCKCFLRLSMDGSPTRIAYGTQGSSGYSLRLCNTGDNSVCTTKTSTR

Row | SMILES | Ki (human plasma kallikrein) [nM] | Ki (human Factor XIa) [nM]
1 | O=C1NCCCCC[C@H](n2cnc(-c3cc(Cl)ccc3-n3cc(Cl)nn3)cc2=O)c2cccc(c2)N2CCNC[C@@H]12 [Example 2, (7S,15S)-15-{4-[5-chloro-2-(4-chloro-1H-1,2,3-triazol-1-yl)phenyl]-6-oxo-1,6-dihydropyrimidin-1-yl}-2,5,9-triazatricyclo[14.3.1.0^2,7]icosa-1(20),16,18-trien-8-one hydrochloride] | 7290 | 542
2 | CC(C)(C)OC(=O)N1CC(=O)N2c3cccc(c3)[C@@H](n3cnc(-c4cc(Cl)ccc4-n4cc(Cl)nn4)cc3=O)CCCCCNC(=O)[C@@H]2C1 [Example 4, tert-butyl (7S,15S)-15-{4-[5-chloro-2-(4-chloro-1H-1,2,3-triazol-1-yl)phenyl]-6-oxo-1,6-dihydropyrimidin-1-yl}-3,8-dioxo-2,5,9-triazatricyclo[14.3.1.0^2,7]icosa-1(20),16,18-triene-5-carboxylate] | 3140 | 9020
3 | CC(C)(C)OC(=O)N1CC(=O)N2c3cccc(c3)[C@@H](n3cnc(-c4cc(Cl)ccc4-n4cc(Cl)nn4)cc3=O)CCCCCNC(=O)[C@H]2C1 [Example 5, tert-butyl (7R,15S)-15-{4-[5-chloro-2-(4-chloro-1H-1,2,3-triazol-1-yl)phenyl]-6-oxo-1,6-dihydropyrimidin-1-yl}-3,8-dioxo-2,5,9-triazatricyclo[14.3.1.0^2,7]icosa-1(20),16,18-triene-5-carboxylate] | 6000 | 276
4 | O=C1NCCCCC[C@H](n2cnc(-c3cc(Cl)ccc3-n3cc(Cl)nn3)cc2=O)c2cccc(c2)N2C(=O)CNC[C@@H]12 [Example 6, (7S,15S)-15-{4-[5-chloro-2-(4-chloro-1H-1,2,3-triazol-1-yl)phenyl]-6-oxo-1,6-dihydropyrimidin-1-yl}-2,5,9-triazatricyclo[14.3.1.0^2,7]icosa-1(20),16,18-triene-3,8-dione hydrochloride] | 13000 | 6000
5 | O=C1NCCCCC[C@H](n2cnc(-c3cc(Cl)ccc3-n3cc(Cl)nn3)cc2=O)c2cccc(c2)N2C(=O)CNC[C@H]12 [Example 7, (7R,15S)-15-{4-[5-chloro-2-(4-chloro-1H-1,2,3-triazol-1-yl)phenyl]-6-oxo-1,6-dihydropyrimidin-1-yl}-2,5,9-triazatricyclo[14.3.1.0^2,7]icosa-1(20),16,18-triene-3,8-dione hydrochloride] | 4780 | 97
6 | O=C1NCCCCC[C@H](n2cnc(-c3cc(Cl)ccc3-n3cc(Cl)nn3)cc2=O)c2cccc(c2)N2CCNC[C@H]12 [Example 9, (7R,15S)-15-{4-[5-chloro-2-(4-chloro-1H-1,2,3-triazol-1-yl)phenyl]-6-oxo-1,6-dihydropyrimidin-1-yl}-2,5,9-triazatricyclo[14.3.1.0^2,7]icosa-1(20),16,18-trien-8-one hydrochloride] | 1820 | 11
7 | CC(C)(C)OC(=O)CN1CCN2c3cccc(c3)[C@@H](n3cnc(-c4cc(Cl)ccc4-n4cc(Cl)nn4)cc3=O)CCCCCNC(=O)[C@H]2C1 [Example 11, tert-butyl 2-[(7R,15S)-15-{4-[5-chloro-2-(4-chloro-1H-1,2,3-triazol-1-yl)phenyl]-6-oxo-1,6-dihydropyrimidin-1-yl}-8-oxo-2,5,9-triazatricyclo[14.3.1.0^2,7]icosa-1(20),16,18-trien-5-yl]acetate trifluoromethylacetate] | 460 | 11
8 | CC(C)(C)OC(=O)N1CCN2c3cccc(c3)[C@@H](n3cnc(-c4cc(Cl)ccc4-n4cc(Cl)nn4)cc3=O)CCCCNC(=O)[C@H]2C1 [Example 15, tert-butyl (7R,14S)-14-{4-[5-chloro-2-(4-chloro-1H-1,2,3-triazol-1-yl)phenyl]-6-oxo-1,6-dihydropyrimidin-1-yl}-8-oxo-2,5,9-triazatricyclo[13.3.1.0^2,7]nonadeca-1(19),15,17-triene-5-carboxylate, trifluoromethylacetate] | 3430 | 492
9 | O=C1NCCCCC[C@H](n2cnc(-c3cc(Cl)ccc3-n3cc(Cl)nn3)cc2=O)c2cccc(c2)N2CCN(C3COC3)C[C@H]12 [Example 16, (7R,15S)-15-{4-[5-chloro-2-(4-chloro-1H-1,2,3-triazol-1-yl)phenyl]-6-oxo-1,6-dihydropyrimidin-1-yl}-5-(oxetan-3-yl)-2,5,9-triazatricyclo[14.3.1.0^2,7]icosa-1(20),16,18-trien-8-one trifluoromethylacetate] | 528 | 13
10 | CCOC(=O)c1cnc(N2CCN3c4cccc(c4)[C@@H](n4cnc(-c5cc(Cl)ccc5-n5cc(Cl)nn5)cc4=O)CCCCCNC(=O)[C@H]3C2)o1 [Example 17, ethyl 2-[(7R,15S)-15-{4-[5-chloro-2-(4-chloro-1H-1,2,3-triazol-1-yl)phenyl]-6-oxo-1,6-dihydropyrimidin-1-yl}-8-oxo-2,5,9-triazatricyclo[14.3.1.0^2,7]icosa-1(20),16,18-trien-5-yl]-1,3-oxazole-5-carboxylate trifluoromethylacetate] | 1220 | 16

The next lines start with the values.

Row | Ki (human plasma kallikrein) [nM] | Ki (human Factor XIa) [nM] | SMILES
11 | 3470 | 955 | CC(C)(C)OC(=O)N1CCN2c3cccc(c3)[C@@H](n3cnc(-c4cc(Cl)ccc4-n4cc(Cl)nn4)cc3=O)CCCCCNC(=O)[C@@H]2C1 [Example 1, tert-butyl (7S,15S)-15-{4-[5-chloro-2-(4-chloro-1H-1,2,3-triazol-1-yl)phenyl]-6-oxo-1,6-dihydropyrimidin-1-yl}-8-oxo-2,5,9-triazatricyclo[14.3.1.0^2,7]icosa-1(20),16,18-triene-5-carboxylate]
12 | 4110 | 643 | COC(=O)N1CCN2c3cccc(c3)[C@@H](n3cnc(-c4cc(Cl)ccc4-n4cc(Cl)nn4)cc3=O)CCCCCNC(=O)[C@@H]2C1 [Example 3, methyl (7S,15S)-15-{4-[5-chloro-2-(4-chloro-1H-1,2,3-triazol-1-yl)phenyl]-6-oxo-1,6-dihydropyrimidin-1-yl}-8-oxo-2,5,9-triazatricyclo[14.3.1.0^2,7]icosa-1(20),16,18-triene-5-carboxylate]
13 | 1090 | 21 | CC(C)(C)OC(=O)N1CCN2c3cccc(c3)[C@@H](n3cnc(-c4cc(Cl)ccc4-n4cc(Cl)nn4)cc3=O)CCCCCNC(=O)[C@H]2C1 [Example 8, tert-butyl (7R,15S)-15-{4-[5-chloro-2-(4-chloro-1H-1,2,3-triazol-1-yl)phenyl]-6-oxo-1,6-dihydropyrimidin-1-yl}-8-oxo-2,5,9-triazatricyclo[14.3.1.0^2,7]icosa-1(20),16,18-triene-5-carboxylate]
14 | 862 | 5 | COC(=O)N1CCN2c3cccc(c3)[C@@H](n3cnc(-c4cc(Cl)ccc4-n4cc(Cl)nn4)cc3=O)CCCCCNC(=O)[C@H]2C1 [Example 10, methyl (7R,15S)-15-{4-[5-chloro-2-(4-chloro-1H-1,2,3-triazol-1-yl)phenyl]-6-oxo-1,6-dihydropyrimidin-1-yl}-8-oxo-2,5,9-triazatricyclo[14.3.1.0^2,7]icosa-1(20),16,18-triene-5-carboxylate]
15 | 1050 | 6 | CC(=O)N1CCN2c3cccc(c3)[C@@H](n3cnc(-c4cc(Cl)ccc4-n4cc(Cl)nn4)cc3=O)CCCCCNC(=O)[C@H]2C1 [Example 12, (7R,15S)-5-acetyl-15-{4-[5-chloro-2-(4-chloro-1H-1,2,3-triazol-1-yl)phenyl]-6-oxo-1,6-dihydropyrimidin-1-yl}-2,5,9-triazatricyclo[14.3.1.0^2,7]icosa-1(20),16,18-trien-8-one]
16 | 441 | 10 | CN1CCN2c3cccc(c3)[C@@H](n3cnc(-c4cc(Cl)ccc4-n4cc(Cl)nn4)cc3=O)CCCCCNC(=O)[C@H]2C1 [Example 13, (7R,15S)-15-{4-[5-chloro-2-(4-chloro-1H-1,2,3-triazol-1-yl)phenyl]-6-oxo-1,6-dihydropyrimidin-1-yl}-5-methyl-2,5,9-triazatricyclo[14.3.1.0^2,7]icosa-1(20),16,18-trien-8-one, trifluoromethyl acetate]
17 | 107 | 5 | O=C(O)CN1CCN2c3cccc(c3)[C@@H](n3cnc(-c4cc(Cl)ccc4-n4cc(Cl)nn4)cc3=O)CCCCCNC(=O)[C@H]2C1 [Example 14, 2-[(7R,15S)-15-{4-[5-chloro-2-(4-chloro-1H-1,2,3-triazol-1-yl)phenyl]-6-oxo-1,6-dihydropyrimidin-1-yl}-8-oxo-2,5,9-triazatricyclo[14.3.1.0^2,7]icosa-1(20),16,18-trien-5-yl]acetic acid trifluoromethyl acetate]
